Laboratory results as given in patent US20080132477A1, “Macrocyclic Compounds Useful as Bace Inhibitors” (priority 2005, published 2008).
Where two headings read alike, the source gives them in different places.

Columns and labels:
Human BACE = molecular target: T1, Human BACE (Homo sapiens, UniProt P56817); experiment: Test 1: Inhibition of Human BACE; type: biochemical; conditions: test not given; follows Tests 1-4, assumed BACE
T1 construct: Recombinant BACE (extracellular domain, expressed in baculovirus and purified using standard methods); made in house
T1 sequence (P56817 46-457 limits assumed): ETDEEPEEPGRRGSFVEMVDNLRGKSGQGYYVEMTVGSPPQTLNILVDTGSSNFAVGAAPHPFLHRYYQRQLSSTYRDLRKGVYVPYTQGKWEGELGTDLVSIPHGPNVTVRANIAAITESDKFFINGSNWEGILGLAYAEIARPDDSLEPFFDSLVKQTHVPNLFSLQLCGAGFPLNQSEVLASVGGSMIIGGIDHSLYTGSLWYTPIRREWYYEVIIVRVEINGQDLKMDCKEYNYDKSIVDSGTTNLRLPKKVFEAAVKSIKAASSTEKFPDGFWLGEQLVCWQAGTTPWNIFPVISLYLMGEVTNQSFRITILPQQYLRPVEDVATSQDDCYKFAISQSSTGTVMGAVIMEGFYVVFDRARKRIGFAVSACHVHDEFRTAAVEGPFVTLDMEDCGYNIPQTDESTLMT
Description: Test 1: Inhibition of Human BACE
Recombinant BACE (extracellular domain, expressed in baculovirus and purified using standard methods) at 6 nM concentration is incubated with the test compound at various concentrations for 1 hour at room temperature in 100 mM acetate buffer, pH 4.5, containing 0.1% CHAPS. Synthetic peptide substrate Mca-Ser-Glu-Val-Asn-Leu-Asp-Ala-Glu-Phe-Lys(DNP) is added to a final concentration of 3 μM and the increase in fluorescence is recorded at excitation of 325 nm and emission at 400 nm in a microplate spectro-fluorimeter for 20 minutes in 1-minute intervals. IC50 values are calculated from percentage of inhibition of BACE-activity as a function of the test compound concentration.

[1] = rcm bond, DCM, 40.0 °C

SMILES: Cc1cc2cc(n1)NCCCCc1cccc(c1)C[C@@H]([C@H](O)CNCc1cccc(C(C)C)c1)NC2=O [Example 11, (S)-4-[(R)-1-Hydroxy-2-(3-isopropyl-benzylamino)-ethyl]-18-methyl-3,15,17-triaza-tricyclo[14.3.1.1*6,10*]henicosa-1(19),6,8,10(21),16(20),17-hexaen-2-one]
- IC50 (Human BACE): 40 nM

SMILES: COc1ccc2cc1CC=CCN(C(C)=O)c1cc(cc(Cl)n1)C(=O)N[C@H]([C@H]1CN(Cc3cccc(C(C)C)c3)C(=O)O1)C2
- ring closure, yield of all isomers ([1]; from C=CCc1cc(C[C@H](NC(=O)c2cc(Cl)nc(N(CC=C)C(C)=O)c2)[C@H]2CN(Cc3cccc(C(C)C)c3)C(=O)O2)ccc1OC, Grubbs II (tricyclohexylphosphine[1,3-bis(2,4,6-trimethylphenyl)-4,5-dihydroimidazol-2-ylidene][benzylidene]ruthenium(IV) dichloride), 3.45 mM, 6.0 h): 77.6%

SMILES: CN(C)C(=O)c1cc2cc(c1)C(=O)N[C@H]([C@H](O)CCl)Cc1cccc(c1)OCC=CCO2
- ring closure, yield of all isomers ([1]; from C=CCOc1cccc(C[C@H](NC(=O)c2cc(OCC=C)cc(C(=O)N(C)C)c2)[C@H](O)CCl)c1, Grubbs II, 18.9 mM, 1.5 h): 70%
